Test results from patent US4965280A, “Antifungal carbinols” (E. I. Du Pont de Nemours and Company, priority 1989, dated 1990).
Values after ≈ are worked out from the molar mass of the structure shown. Where two headings read alike, the source gives them in different places.

Tests used:
[1] = tested on: Candida albicans ATCC 11651; test: In vivo systemic Candida infection in mice, primary assay; set-up: species or system Candida albicans; CF-1 female mice; conditions: Candida albicans, 150 mg/kg per day, read-out: % Survival
Text: The […] activity of test compounds is based on the percent (%) survival of infected animals receiving test or standard agent compared to that in an infected untreated group (Table 6). The in vivo assays are chronic systemic infections lethal to mice within 7 days post infection, [J. Barnes, et al. Lab Investigation, 49 460-467 (1963), and T. Rogers and E. Balish, Infection and Immunity, 14 33-38 (1976)].
Candida albicans ATCC 11651, from a frozen stock culture (10^9 organisms/ml) maintained at -70°, is diluted in saline to 1×10^7 organisms/ml and 0.2 ml inoculated intravenously (caudal vein) into 20.0 gm CF-1 female mice (Charles River).
Test compounds are routinely solubilized in 0.25% (w/v) methylcellulose (Methocel®) but for those compounds difficult to solubilize 10% (w/v) Emulophor® (EL620 GAF Corp.) is used. The standard antifungal agents, amphotericin B (Fungizone®) in water and ketoconazole (Nizoral®) in Methocel®, are administered at 1.0 mg/kg/day and 150 mg/kg/day, respectively.
In a primary assay, mice (10 per group) are infected with C. albicans, and receive test compounds at 50 or 150 mg/kg/day via the subcutaneous route. Animals are dosed with the test compound at 1 and 6 hour post-infection and then once daily for the next three days. Survival of mice in each group is recorded for 21 days.
Compounds which protect ≥70% of the infected animals for 14 days at a dose 150 mg/kg/day or less are viewed as active.

[2] = tested on: Erysiphe graminis f. sp. tritici; test: Example D wheat powdery mildew; assay type: in vivo; conditions: Blumeria graminis, 144 h, read-out: disease control rating, Ex. D
Procedure: (§1) The test compounds were dissolved in acetone in an amount equal to 6% of the final volume and then suspended at a concentration of 100 or 20 ppm in purified water containing 250 ppm of the surfactant TREM 014 (polyhydric alcohol esters). This suspension was sprayed to the point of run-off on wheat seedlings.

Rhizoctonia solani = test: Example F rice sheath blight; assay type: in vivo; conditions: Rhizoctonia solani, 144 h, read-out: disease control rating, Ex. F
Procedure: as §1, with “rice” for “wheat”

Botrytis cinerea = test: Example C bean grey mold; assay type: in vivo; conditions: Botrytis cinerea, 24 h, read-out: disease control rating, Ex. C
Procedure: as §1, with “broad bean” for “wheat”

Phytophthora infestans = test: whole plant or invertebrate; assay type: in vivo; conditions: Phytophthora infestans, in Solanum lycopersicum, read-out: disease control rating, Ex. H, 100 PPM
[3] = tested on: Aspergillus fumigatus ATCC 28214; test: In vitro antifungal MIC, microtiter broth dilution; conditions: Aspergillus fumigatus, ATCC28214, 24 h, read-out: MIC values, A. fumigatus, 30°, 24 hours
Venturia inaequalis = test: Example A apple scab; assay type: in vivo; conditions: read-out: disease control rating, Ex. A
Procedure: as §1, with “apple seedings.” for “wheat seedlings.”

Pyricularia oryzae = test: whole plant or invertebrate; assay type: in vivo; conditions: Pyricularia oryzae, 120 h; for pest or weed control at 20 ppm: read-out: disease control rating, Ex. E, 20 PPM; for pest or weed control at 100 ppm: read-out: disease control rating, Ex. E, 100 PPM
[4] = tested on: Cercosporidium personatum; test: Example B Peanut Late Leafspot; assay type: in vivo; conditions: Nothopassalora personata, read-out: disease control rating, Ex. B
Procedure: as §1, with “peanut” for “wheat”

[5] = tested on: Candida albicans ATCC 11651; test: In vitro antifungal MIC, microtiter broth dilution; conditions: Candida albicans, ATCC11651, 24 h, read-out: MIC values, C. albicans, 30°, 24 hours
Plasmorpara viticola = test: Example I grape downy mildew; assay type: in vivo; conditions: read-out: disease control rating, Ex. I
Procedure: as §1, with “grape” for “wheat”

Puccinia recondita = test: Example G wheat leaf rust; assay type: in vivo; conditions: read-out: disease control rating, Ex. G

Row | Structure (SMILES) | responders at 150 mg/kg ([1]; ATCC11651, 168 h, day 7) [%] | responders at 150 mg/kg ([1]; ATCC11651, 336 h, day 14) [%] | responders at 150 mg/kg ([1]; ATCC11651, 504 h, day 21) [%] | pest or weed control at 20 ppm [2] [%] | pest or weed control at 20 ppm (Rhizoctonia solani) [%] | pest or weed control at 100 ppm (Rhizoctonia solani) [%] | pest or weed control at 20 ppm (Botrytis cinerea) [%] | pest or weed control at 100 ppm (Botrytis cinerea) [%] | pest or weed control at 100 ppm (Phytophthora infestans) [%] | MIC [3] [µg/mL] | pest or weed control at 20 ppm (Venturia inaequalis) [%] | pest or weed control at 20 ppm (Pyricularia oryzae) [%] | pest or weed control at 100 ppm (Pyricularia oryzae) [%] | pest or weed control at 20 ppm [4] [%] | MIC [5] [µg/mL] | pest or weed control at 100 ppm (Plasmorpara viticola) [%] | pest or weed control at 20 ppm (Puccinia recondita) [%] | other results
1 | C=C(c1ccc(F)cc1)C(O)(Cn1cncn1)c1cccc(C(F)(F)F)c1 (stereo not drawn) [Example 661] | 50 | 20 | 0 | 62 | 10 | 70 | 61 | 56 | 5 | 100 (≈ 265 µM) | 81 | 0 | 0 | 79 | 1.6 (≈ 4.24 µM) | 85 | 100 | –
2 | C=C(CN(C)C)C(O)(Cn1cncn1)c1ccc(F)cc1 (stereo not drawn) [Example 454] | – | – | – | – | – | 0 | – | 0 | 0 | > 100 | – | – | 0 | – | 100 (≈ 344 µM) | 0 | – | pest or weed control at 100 ppm [2]: 22%; pest or weed control at 100 ppm (Venturia inaequalis): 0%; pest or weed control at 100 ppm [4]: 0%; pest or weed control at 100 ppm (Puccinia recondita): 0%
3 | C=C(c1ccc(SC)cc1)C(O)(Cn1cncn1)c1ccc(F)cc1 (stereo not drawn) [Example 163] | 90 | 60 | 40 | 23 | 0 | 0 | 58 | 95 | 0 | 12.5 (≈ 35.2 µM) | 0 | 5 | 5 | 81 | 0.03 (≈ 0.0844 µM) | 0 | 99 | –
4 | OC(Cn1cncn1)(C(=Cc1ccccc1)c1ccccc1)c1ccc(F)cc1 (stereo not drawn) [Example 291] | – | – | – | 83 | 0 | 0 | 6 | 81 | 24 | 100 (≈ 259 µM) | 32 | 1 | 1 | 26 | 0.2 (≈ 0.519 µM) | 78 | 73 | –
5 | C=C(c1ccc(Cl)cc1)C(O)(Cn1cncn1)c1ccc(Cl)c(Cl)c1 (stereo not drawn) [Example 675] | 100 | 60 | 0 | 44 | 0 | 62 | 42 | 30 | 0 | 25 (≈ 63.3 µM) | 40 | 0 | 0 | 0 | 0.1 (≈ 0.253 µM) | 69 | 16 | –
6 | C=C(c1ccc(F)cc1)C(O)(Cn1cncn1)c1ccc(OC)cc1 (stereo not drawn) [Example 663] | – | – | – | – | – | 36 | – | 95 | 0 | – | – | – | 57 | – | – | 39 | – | pest or weed control at 100 ppm [2]: 99%; pest or weed control at 100 ppm (Venturia inaequalis): 42%; pest or weed control at 100 ppm [4]: 100%; pest or weed control at 100 ppm (Puccinia recondita): 100%
7 | C=C(c1ccc(F)cc1)C(Cn1cncn1)(OC(C)=O)c1ccc(F)cc1 (stereo not drawn) [Example 361] | 100 | 100 | 90 | 33 | 0 | 0 | 29 | 46 | 27 | 25 (≈ 67.7 µM) | 43 | 1 | 1 | 26 | 0.8 (≈ 2.17 µM) | 9 | 100 | –
8 | C=C(c1cccc(Cl)c1)C(O)(Cn1cncn1)c1ccccc1F (stereo not drawn) [Example 47] | 90 | 80 | 30 | 98 | 0 | 47 | 26 | 89 | 0 | 1.6 (≈ 4.65 µM) | 93 | 15 | 31 | 100 | 0.03 (≈ 0.0873 µM) | 25 | 100 | –
9 | C=C(c1ccc(S(C)(=O)=O)cc1)C(O)(Cn1cncn1)c1ccc(F)cc1 (stereo not drawn) [Example 177] | – | – | – | 46 | 0 | 0 | 50 | 26 | 0 | > 100 | 82 | 0 | 10 | 26 | 3.2 (≈ 8.26 µM) | 0 | 100 | –
10 | C=C(c1ccc([S+](C)[O-])cc1)C(O)(Cn1cncn1)c1ccc(F)cc1 (stereo not drawn) [Example 170] | – | – | – | 95 | 0 | 0 | 32 | 20 | 0 | 100 (≈ 269 µM) | 19 | 0 | 10 | 69 | 1.6 (≈ 4.31 µM) | 0 | 100 | –
